In ChEMBL document CHEMBL5518174 (Eur J Med Chem, 2024):
Activity calls are given as the source filed them. No cut-off for these calls is given here.

Tests used:
[1] = Toxicity in athymic nude BALB/c mouse xenografted with human NCI-H1975 cells assessed as effect on AST level at 6 mg/kg, ip administered 5 times a week for 3 weeks and measured on day 22; assay type: organism-based; settings: in vivo, 528 h, time 22 day
[2] = Downregulation of HDAC8 protein expression in human NCI-H1975 cells assessed as fold change at 0.1 uM incubated for 24 hrs by immunoblotting analysis (reference value: 1); assay type: functional
[3] = Effect on HDAC4 protein expression in human MDA-MB-231 cells assessed as fold change at 0.05 uM incubated for 24 hrs by immunoblotting analysis (reference value: 1); assay type: functional
[4] = Downregulation of HDAC11 protein expression in human MDA-MB-231 cells assessed as fold change at 0.1 uM incubated for 24 hrs by immunoblotting analysis (reference value: 1); assay type: functional
[5] = Effect on HDAC4 protein expression in human MDA-MB-231 cells assessed as fold change at 0.1 uM incubated for 24 hrs by immunoblotting analysis (reference value: 1); assay type: functional
Histone deacetylase 5 = Histone deacetylase 5 (Homo sapiens, UniProt Q9UQL6); experiment: Inhibition of recombinant human HDAC5 using acetylated luminogenic substrate incubated for 10 mins by ultra-glo recombinant firefly luciferase based luminescence assay
Histone deacetylase 5, sequence (Q9UQL6 whole entry): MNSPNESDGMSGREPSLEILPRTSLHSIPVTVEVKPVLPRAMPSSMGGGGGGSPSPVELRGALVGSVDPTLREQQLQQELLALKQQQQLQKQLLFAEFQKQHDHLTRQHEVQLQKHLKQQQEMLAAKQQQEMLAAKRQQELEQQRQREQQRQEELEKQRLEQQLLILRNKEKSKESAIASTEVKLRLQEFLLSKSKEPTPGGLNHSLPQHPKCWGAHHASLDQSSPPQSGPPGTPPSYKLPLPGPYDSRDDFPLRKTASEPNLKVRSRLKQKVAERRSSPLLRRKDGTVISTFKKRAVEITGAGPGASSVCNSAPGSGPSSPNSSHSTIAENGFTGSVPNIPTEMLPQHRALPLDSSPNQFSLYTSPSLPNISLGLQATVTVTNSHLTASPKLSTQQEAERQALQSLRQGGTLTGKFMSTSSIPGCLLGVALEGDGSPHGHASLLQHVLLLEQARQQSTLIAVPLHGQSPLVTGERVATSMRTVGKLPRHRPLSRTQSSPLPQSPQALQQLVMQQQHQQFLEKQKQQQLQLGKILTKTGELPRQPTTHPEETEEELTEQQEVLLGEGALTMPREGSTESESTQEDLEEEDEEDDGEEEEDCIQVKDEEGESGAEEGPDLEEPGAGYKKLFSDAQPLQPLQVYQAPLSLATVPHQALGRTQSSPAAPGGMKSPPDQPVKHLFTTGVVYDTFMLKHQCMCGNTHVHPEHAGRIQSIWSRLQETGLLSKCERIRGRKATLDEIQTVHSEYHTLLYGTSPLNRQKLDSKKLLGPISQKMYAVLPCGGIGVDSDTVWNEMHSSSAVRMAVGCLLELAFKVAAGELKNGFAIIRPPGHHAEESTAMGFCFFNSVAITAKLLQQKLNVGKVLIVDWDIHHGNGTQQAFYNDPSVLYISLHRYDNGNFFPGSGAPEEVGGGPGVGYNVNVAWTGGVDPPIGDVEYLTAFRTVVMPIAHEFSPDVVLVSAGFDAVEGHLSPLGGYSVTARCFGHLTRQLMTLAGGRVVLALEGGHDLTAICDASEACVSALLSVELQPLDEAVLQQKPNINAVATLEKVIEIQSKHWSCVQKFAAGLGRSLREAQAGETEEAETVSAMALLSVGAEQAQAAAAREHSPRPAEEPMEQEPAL

[6] = Upregulation of acetylated H4 protein expression in human NCI-H1975 cells assessed as fold change at 0.05 uM incubated for 24 hrs by immunoblotting analysis (reference value: 1); assay type: functional
[7] = Toxicity in athymic nude BALB/c mouse xenografted with human NCI-H1975 cells assessed as effect on creatinine level at 6 mg/kg, ip administered 5 times a week for 3 weeks and measured on day 22; assay type: organism-based; settings: in vivo, 528 h, time 22 day
[8] = Upregulation of acetylated H3 protein expression in human MDA-MB-231 cells assessed as fold change at 0.1 uM incubated for 24 hrs by immunoblotting analysis (reference value: 1); assay type: functional
[9] = target: T1, Protein deacetylase HDAC6 (Homo sapiens, UniProt Q9UBN7); experiment: Inhibition of recombinant human HDAC6 using acetylated luminogenic substrate incubated for 10 mins by ultra-glo recombinant firefly luciferase based luminescence assay
T1 sequence (Q9UBN7 whole entry): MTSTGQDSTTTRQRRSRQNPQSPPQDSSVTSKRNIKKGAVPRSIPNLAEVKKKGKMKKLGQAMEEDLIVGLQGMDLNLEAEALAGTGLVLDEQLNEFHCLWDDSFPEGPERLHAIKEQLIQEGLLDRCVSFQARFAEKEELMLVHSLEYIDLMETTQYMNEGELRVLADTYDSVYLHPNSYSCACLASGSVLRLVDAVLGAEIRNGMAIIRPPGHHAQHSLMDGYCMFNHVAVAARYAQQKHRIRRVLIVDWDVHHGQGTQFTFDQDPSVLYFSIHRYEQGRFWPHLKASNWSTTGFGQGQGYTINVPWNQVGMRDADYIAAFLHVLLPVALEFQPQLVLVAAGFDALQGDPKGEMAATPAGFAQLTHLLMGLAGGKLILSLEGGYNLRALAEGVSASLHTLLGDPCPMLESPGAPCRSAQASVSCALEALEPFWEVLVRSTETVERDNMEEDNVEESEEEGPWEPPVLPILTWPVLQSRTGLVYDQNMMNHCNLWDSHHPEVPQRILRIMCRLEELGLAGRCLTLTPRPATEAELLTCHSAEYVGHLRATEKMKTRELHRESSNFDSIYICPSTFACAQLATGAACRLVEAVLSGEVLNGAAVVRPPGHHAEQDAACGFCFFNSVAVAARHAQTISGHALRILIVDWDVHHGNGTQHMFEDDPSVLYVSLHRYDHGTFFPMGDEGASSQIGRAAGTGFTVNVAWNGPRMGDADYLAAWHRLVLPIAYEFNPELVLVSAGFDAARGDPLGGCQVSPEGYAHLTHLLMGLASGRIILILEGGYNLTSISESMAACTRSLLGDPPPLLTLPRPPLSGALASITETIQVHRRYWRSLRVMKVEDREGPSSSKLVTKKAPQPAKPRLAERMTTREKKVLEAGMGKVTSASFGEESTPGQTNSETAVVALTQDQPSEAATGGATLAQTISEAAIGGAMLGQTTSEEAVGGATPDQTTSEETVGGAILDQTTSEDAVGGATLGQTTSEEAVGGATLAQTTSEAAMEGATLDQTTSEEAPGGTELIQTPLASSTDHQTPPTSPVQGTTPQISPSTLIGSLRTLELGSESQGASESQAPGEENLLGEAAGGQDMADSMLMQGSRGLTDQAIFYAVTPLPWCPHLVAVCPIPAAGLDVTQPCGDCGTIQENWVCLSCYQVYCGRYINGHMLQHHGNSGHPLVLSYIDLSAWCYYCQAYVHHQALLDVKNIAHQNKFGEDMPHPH

Histone deacetylase 8 = target: T2, Histone deacetylase 8 (Homo sapiens, UniProt Q9BY41); experiment: Inhibition of recombinant human HDAC8 using acetylated luminogenic substrate incubated for 10 mins by ultra-glo recombinant firefly luciferase based luminescence assay
T2 sequence (Q9BY41 whole entry): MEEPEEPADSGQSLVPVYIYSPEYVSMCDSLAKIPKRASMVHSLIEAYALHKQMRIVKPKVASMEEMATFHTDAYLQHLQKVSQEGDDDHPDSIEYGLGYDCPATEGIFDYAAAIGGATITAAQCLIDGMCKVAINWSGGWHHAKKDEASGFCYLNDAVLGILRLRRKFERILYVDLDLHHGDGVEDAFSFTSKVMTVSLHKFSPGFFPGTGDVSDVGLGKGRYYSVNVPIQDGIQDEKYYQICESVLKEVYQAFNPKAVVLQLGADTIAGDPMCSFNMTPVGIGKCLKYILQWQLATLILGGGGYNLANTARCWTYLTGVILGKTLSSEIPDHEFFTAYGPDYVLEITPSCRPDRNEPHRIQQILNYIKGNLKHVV

[10] = Effect on HDAC5 protein expression in human MDA-MB-231 cells assessed as fold change at 0.05 uM incubated for 24 hrs by immunoblotting analysis (reference value: 1); assay type: functional
NCI-H1975 [11] = experiment: Antitumor activity against human NCI-H1975 cells xenografted in athymic nude BALB/c mouse assessed as reduction in tumor growth at 6 mg/kg, ip administered 5 times a week for 3 weeks by vernier caliper method; assay type: functional, organism-based
[12] = Downregulation of HDAC7 protein expression in human NCI-H1975 cells assessed as fold change at 0.1 uM incubated for 24 hrs by immunoblotting analysis (reference value: 1); assay type: functional
[13] = Toxicity in athymic nude BALB/c mouse xenografted with human MDA-MB-231 cells assessed as effect on creatinine level in serum at 3 mg/kg, ip administered 5 times a week for 7 weeks; assay type: organism-based; settings: in vivo, 1176 h
[14] = Downregulation of HDAC6 protein expression in human MDA-MB-231 cells assessed as fold change at 0.05 uM incubated for 24 hrs by immunoblotting analysis (reference value: 1); assay type: functional
NCI-H1975 [15] = experiment: Antitumor activity against human NCI-H1975 cells xenografted in athymic nude BALB/c mouse assessed as cell apoptosis in tumor region at 6 mg/kg, ip administered 5 times a week for 3 weeks and measured on day 22 by TUNEL assay; assay type: functional, organism-based; settings: time 22.0 day

CCOc1ccc(-c2nc(C(=O)NCc3ccc(C(=O)NO)cc3)c3[nH]c(=O)n(-c4cccnc4OC)c3n2)cn1
Activity [1]: Non-Toxic
fold change (FC) [2]: 0.46
fold change (FC) [3]: 1.15
fold change (FC) [4]: 0.2
fold change (FC) [5]: 1.01
IC50 (Histone deacetylase 5): > 1000 nM
fold change (FC) [6]: 1.7
Activity [7]: Non-Toxic
fold change (FC) [8]: 1.35
IC50 [9]: 10.8 nM
IC50 (Histone deacetylase 8): 138 nM
fold change (FC) [10]: 1.16
Activity (NCI-H1975 [11]): Active
fold change (FC) [12]: 0.79
Activity [13]: Non-Toxic
fold change (FC) [14]: 0.47
Activity (NCI-H1975 [15]): Active
